# Assay results published in patent US20070092577A1, “Dietary calcium for reducing the production of reactive oxygen species” (University of Tennessee Research Foundation, priority 2005, published 2007).
# System: 3T3-L1 adipocytes
# Test: Mouse cytokine antibody array of culture medium
# Assay type: cell-based
# Method: RAW 264 macrophages and 3T3-L1 preadipocytes (American Type Culture Collection) were incubated at a density of 8000 cells/cm2 (10 cm2 dish) and grown in Dulbecco's modified Eagle's medium (DMEM) containing 10% FBS and antibiotics (adipocyte medium) at 37° C. in 5% CO2 in air. Confluent 3T3-L1 preadipocytes were induced to differentiate with a standard differentiation medium consisting of DMEM-F10 (1:1, vol/vol) medium supplemented with 1% FBS, 1 μM dexamethasone, IBMX (0.5 mM) and antibiotics (1% Penicillin-Streptomycin). Preadipocytes were maintained in this differentiation medium for 3 days and subsequently cultured in adipocyte medium. Cultures were re-fed every 2-3 days to allow 90% cells to reach fully differentiation for 3T3-L1 adipocytes or grow to a confluence for RAW 264 before conducting chemical treatment.
# Human adipocytes (Zen-Bio, Inc.), 3T3-L1 adipocytes, RAW264 macrophages were obtained and co-cultured by using transwell inserts with 0.4 μm porous membranes (Corning) to separate adipocytes and macrophages. All data are expressed as mean±SEM. Data were evaluated for statistical significance by analysis of one-way or two-way variance (ANOVA; means with different letter differ, p<0.05).
# A TansSignal™ mouse cytokine antibody array kit (Panomics, Fremont, Calif.) was used to detect cytokine protein released in culture medium according to the manufacture's instruction. […]
compound,measurement,setting,value
"C=C1/C(=C\C=C2/CCC[C@]3(C)[C@@H]([C@H](C)CCCC(C)(C)O)CC[C@@H]23)C[C@@H](O)C[C@@H]1O [calcitriol, 1, 25-Dihydroxyvitamin D]",effect on inflammatory cytokine production,co-culture of 3T3-L1 adipocytes with RAW264 macrophages,further stimulated inflammatory cytokine production
same,effect on release of inflammatory cytokine proteins,differentiated 3T3-L1 adipocytes cultured alone,up-regulated production of multiple inflammatory cytokine proteins
